The text below walks through data of US20220033490A1 (priority 2018, published 2022).

For the test, the target named is T1, α6*nAChR (Homo sapiens, UniProt Q15825).
T1 construct: endogenous in cells; host or cells: human inducible Tregs (from naïve CD4+ T cells of PBMCs) co-cultured with autologous CD8+ T cells
The format is cell-based.

T1 sequence (Q15825 26-494): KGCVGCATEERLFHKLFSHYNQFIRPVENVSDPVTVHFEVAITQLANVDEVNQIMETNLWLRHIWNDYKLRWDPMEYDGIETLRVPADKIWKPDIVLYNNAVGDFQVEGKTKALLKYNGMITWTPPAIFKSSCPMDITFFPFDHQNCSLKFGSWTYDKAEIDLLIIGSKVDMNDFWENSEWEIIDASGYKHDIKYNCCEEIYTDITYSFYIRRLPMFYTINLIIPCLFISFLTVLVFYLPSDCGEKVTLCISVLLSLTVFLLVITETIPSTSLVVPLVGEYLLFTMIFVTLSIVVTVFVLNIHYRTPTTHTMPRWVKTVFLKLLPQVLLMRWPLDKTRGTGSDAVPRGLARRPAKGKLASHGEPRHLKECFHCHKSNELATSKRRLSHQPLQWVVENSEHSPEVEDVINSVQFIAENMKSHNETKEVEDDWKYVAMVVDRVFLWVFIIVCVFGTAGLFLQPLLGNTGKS

`CN1CCCC1c1cccnc1` (centres unmarked) [nicotine]: the “IFNγ+CD8+ T-cells in co-culture” value was “trend of decreasing IFNγ+CD8+ T-cells”.
alpha-conotoxin PIA [[…]-conotoxin PIA]: the “IFNγ+CD8+ T cells in co-culture” value is listed as “trend of increasing IFNγ+CD8+ T cells”.
